This passage reports IC50 results from ChEMBL document CHEMBL1287720, “Inhibition of human neuraminidase 3 (NEU3) by C9-triazole derivatives of 2,3-didehydro-N-acetyl-neuraminic acid” (Bioorg Med Chem Lett, 2010).

The structures appear in SMILES notation.

For the first assay, the target named is T1, Sialidase-3 (Homo sapiens, UniProt Q9UQ49).
T1 sequence (Q9UQ49 whole entry): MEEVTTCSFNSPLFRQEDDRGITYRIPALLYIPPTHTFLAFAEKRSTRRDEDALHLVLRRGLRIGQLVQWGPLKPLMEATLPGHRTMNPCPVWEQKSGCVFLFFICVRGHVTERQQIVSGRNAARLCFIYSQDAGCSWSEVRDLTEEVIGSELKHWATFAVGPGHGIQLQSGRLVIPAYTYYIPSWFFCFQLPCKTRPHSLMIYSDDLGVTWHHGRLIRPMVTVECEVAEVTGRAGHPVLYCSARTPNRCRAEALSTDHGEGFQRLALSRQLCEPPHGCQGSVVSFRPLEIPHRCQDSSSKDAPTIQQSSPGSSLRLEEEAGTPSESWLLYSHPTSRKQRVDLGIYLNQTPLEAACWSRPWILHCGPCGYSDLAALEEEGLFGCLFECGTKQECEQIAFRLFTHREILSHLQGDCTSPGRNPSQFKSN
Nature of the assay: Inhibition of human neuraminidase 3.
`CC(=O)N[C@H]1[C@H]([C@H](O)[C@H](O)CO)O[C@@](O)(C(=O)O)C[C@@H]1O`: the IC50 result is listed as “Not Active”.

For a further assay, the target named is T1, Sialidase-3. Nature of the assay: Inhibition of human neuraminidase 3 assessed as inhibition of GM3 hydrolysis.
For `CCOC(=O)C1=C[C@@H](OC(CC)CC)[C@H](NC(C)=O)[C@@H](N)C1` [OSELTAMIVIR], the IC50 was > 10000 µM.

For another assay, the target named is T1, Sialidase-3.
Assay: not given; call rule not given here
Turning to `CCOc1cn(C[C@@H](O)[C@@H](O)[C@@H]2OC(C(=O)O)=C[C@H](O)[C@H]2NC(C)=O)nn1`, the IC50 is 300 µM.
Regarding `CC(=O)N[C@H]1[C@H]([C@H](O)[C@H](O)Cn2cc(CCCO)nn2)OC(C(=O)O)=C[C@@H]1O`, the IC50 is 500 µM.
On the same count and under the same terms, the figure for `CC(=O)N[C@H]1[C@H]([C@H](O)[C@H](O)Cn2cc(COc3ccccc3)nn2)OC(C(=O)O)=C[C@@H]1O` is 45 µM; for `CC(=O)N[C@H]1[C@H]([C@H](O)[C@H](O)CO)OC(C(=O)O)=C[C@@H]1O` [NEU5AC2EN] it is 48 µM; for `O=C(Cn1cc(CCO)nn1)N[C@H]1[C@H]([C@H](O)[C@H](O)CO)OC(C(=O)O)=C[C@@H]1O` it is > 500 µM.
Still for that read-out and setting: the figure for `CCCCCCc1cn(CC(=O)N[C@H]2[C@H]([C@H](O)[C@H](O)CO)OC(C(=O)O)=C[C@@H]2O)nn1` is > 500 µM.
Same read-out and setting: the figure for `CC(=O)N[C@H]1[C@H]([C@H](O)[C@H](O)Cn2cc(CCO)nn2)OC(C(=O)O)=C[C@@H]1O` is 400 µM; for `[N-]=[N+]=NCC(=O)N[C@H]1[C@H]([C@H](O)[C@H](O)CO)OC(C(=O)O)=C[C@@H]1O` it is 21 µM.
With `CC(C)(O)c1cn(CC(=O)N[C@H]2[C@H]([C@H](O)[C@H](O)CO)OC(C(=O)O)=C[C@@H]2O)nn1`, the IC50 is > 500 µM.
As for `O=C(Cn1cc(CO)nn1)N[C@H]1[C@H]([C@H](O)[C@H](O)CO)OC(C(=O)O)=C[C@@H]1O`, the half-maximal inhibitory concentration (IC50) was > 500 µM.
On the same count and under the same terms, then `CCCCCCc1cn(C[C@@H](O)[C@@H](O)[C@@H]2OC(C(=O)O)=C[C@H](O)[C@H]2NC(C)=O)nn1`, with 23 µM.
As to `CCOc1cn(CC(=O)N[C@H]2[C@H]([C@H](O)[C@H](O)CO)OC(C(=O)O)=C[C@@H]2O)nn1`, the IC50 was > 500 µM.
On the same count and under the same terms, the figure for `CCOC(OCC)c1cn(C[C@@H](O)[C@@H](O)[C@@H]2OC(C(=O)O)=C[C@H](O)[C@H]2NC(C)=O)nn1` is 130 µM; for `O=C(Cn1cc(COc2ccccc2)nn1)N[C@H]1[C@H]([C@H](O)[C@H](O)CO)OC(C(=O)O)=C[C@@H]1O` it is > 500 µM.
Same read-out and setting: the figure for `CC(=O)N[C@H]1[C@H]([C@H](O)[C@H](O)Cn2cc(-c3ccccc3)nn2)OC(C(=O)O)=C[C@@H]1O` is 20 µM.
The same measure, in the same setting: then `O=C(Cn1cc(CCCO)nn1)N[C@H]1[C@H]([C@H](O)[C@H](O)CO)OC(C(=O)O)=C[C@@H]1O`, with > 500 µM; and `CC(=O)N[C@H]1[C@H]([C@H](O)[C@H](O)Cn2cc(CO)nn2)OC(C(=O)O)=C[C@@H]1O`, with 300 µM; and `CC(=O)N[C@H]1[C@H]([C@H](O)[C@H](O)Cn2cc(C(C)(C)O)nn2)OC(C(=O)O)=C[C@@H]1O`, with 300 µM.
In turn, `CC(=O)N[C@H]1[C@H]([C@H](O)[C@H](O)CN=[N+]=[N-])OC(C(=O)O)=C[C@@H]1O` displayed an IC50 of 70 µM.
As for `O=C(Cn1cc(-c2ccccc2)nn1)N[C@H]1[C@H]([C@H](O)[C@H](O)CO)OC(C(=O)O)=C[C@@H]1O`, the IC50 is > 500 µM.
`CCOC(OCC)c1cn(CC(=O)N[C@H]2[C@H]([C@H](O)[C@H](O)CO)OC(C(=O)O)=C[C@@H]2O)nn1`: the IC50 was > 500 µM.

A further assay has as its target T1, Sialidase-3. Nature of the assay: Inhibition of human neuraminidase 3 assessed as inhibition of 4-methylumbelliferyl-alpha-D-N-acetylneuraminic acid hydrolysis.
With `CC(=O)N[C@H]1[C@H]([C@H](O)[C@H](O)CO)OC(C(=O)O)=C[C@@H]1O` [NEU5AC2EN], the IC50 amounted to 43 µM.
The same measure, in the same setting: then `CC(=O)N[C@H]1[C@H]([C@H](O)[C@H](O)CNC(=O)c2ccccc2)OC(C(=O)O)=C[C@@H]1O`, with 320 µM; and `CC(=O)NC[C@@H](O)[C@@H](O)[C@@H]1OC(C(=O)O)=C[C@H](O)[C@H]1NC(C)=O`, with > 1000 µM.
